Assay results taken from US6908915B1, “Tricyclic compounds and their uses as antiarrhythmic antifibrillatory and defibrillatory agents” (Technion Research & Development Foundation Ltd., priority 2000, dated 2005).

Test system: artificially induced SVF
Test: Transformation of electrically induced SVF to TVF in anesthetized cats (antiarrhythmic defibrillating activity)
Type: in vivo
Conditions: intravenous, VF type examined before and 2 to 3 min after drug; for Relative activity in dosage of 1 mg/kg: monohydrochloride
Protocol: 10,11-dihydro-5-[(3-N-alkyl)1-oxopropyl] 5-H-dibenzo[b,f]azepin monohydrochloride, 10,11-dihydro-5-[N-? isopropylamino-2propanol)] 5-H-dibenzo [b,f]azepin monohydrochloride and 11-Oxo-10,11-dihydro-5-[(N-alkyl)1-oxopropyl]-5-H-dibenzo [b,e] [1,4] diazepin hydrochloride were synthesized as is described hereinabove and tested for their effectiveness in transforming SVF to TVF, as described herein. […] The experimental method was as follows.
Hydrochloride salts of the compounds were dissolved in saline. Activity of each compound was tested in cats of both sexes. Cats were anesthetized with 15-25 mg/kg intravenous sodium, pentobarbital. The tested compounds were injected intravenously (1-3 mg/kg). The heart of each experimental subject was exposed through midline thoracotomy, and a room air respirator was applied through a tracheal cannula. Lead II electrocardiogram and intra-arterial blood pressure was recorded on a Grass Polygraph (Grass Instrument Co., Quincy, Mass., USA).
Fibrillating stimuli (a train of rectangular pulses of 2 to 15 V, 100 pulses/sec and duration of 0.1 to 1.0 msec, for a period of 1 sec) were delivered through two silver needle electrodes attached to the pericardium on the left ventricle. Fibrillating stimuli were one and a half to twice the strength of the fibrillating threshold.
VF was induced before and after drug administration, according to a previously described procedure. The type of VF was examined before and 2 to 3 min after drug treatment. Each cat served as its own control. In some experiments, a β-adrenergic blocker (propranolol, 0.1-0.6 mg/kg) was administered after drug administration, in order to evaluate the neutralizing effect of the blocker on the compound-induced catecholamine levels. Table l below presents the results.

Compound	Relative activity in dosage of 1 mg/kg [%]	Relative activity in dosage of 2 mg/kg [%]
CC(C)NCC(O)CN1c2ccccc2CCc2ccccc21.Cl (stereo not drawn) [Compound 25bis]	100	100
CC(C)NCC(O)CN1c2ccccc2CCc2ccccc21.Cl (stereo not drawn) [Compound 25bir]	50	100
CC(C)NCC(O)CN1c2ccccc2CCc2ccccc21.Cl (stereo not drawn) [Compound 25bi]	100	100
